Laboratory results published in ChEMBL document CHEMBL5705888, “Substrate specificity and inhibitors of LRRK2, a protein kinase mutated in Parkinson's disease” (Biochem J, 2009).

Columns and labels:
[1] = molecular target: T1, Protein kinase C zeta type (Homo sapiens) (UniProt Q05513); assay: Inhibition of PKCzeta (unknown origin) at 1 uM incubated for 30 mins in presence of [gamma-33P]ATP by multidrop micro reagent based assay relative to control; values are per cent of control
T1 sequence (whole entry): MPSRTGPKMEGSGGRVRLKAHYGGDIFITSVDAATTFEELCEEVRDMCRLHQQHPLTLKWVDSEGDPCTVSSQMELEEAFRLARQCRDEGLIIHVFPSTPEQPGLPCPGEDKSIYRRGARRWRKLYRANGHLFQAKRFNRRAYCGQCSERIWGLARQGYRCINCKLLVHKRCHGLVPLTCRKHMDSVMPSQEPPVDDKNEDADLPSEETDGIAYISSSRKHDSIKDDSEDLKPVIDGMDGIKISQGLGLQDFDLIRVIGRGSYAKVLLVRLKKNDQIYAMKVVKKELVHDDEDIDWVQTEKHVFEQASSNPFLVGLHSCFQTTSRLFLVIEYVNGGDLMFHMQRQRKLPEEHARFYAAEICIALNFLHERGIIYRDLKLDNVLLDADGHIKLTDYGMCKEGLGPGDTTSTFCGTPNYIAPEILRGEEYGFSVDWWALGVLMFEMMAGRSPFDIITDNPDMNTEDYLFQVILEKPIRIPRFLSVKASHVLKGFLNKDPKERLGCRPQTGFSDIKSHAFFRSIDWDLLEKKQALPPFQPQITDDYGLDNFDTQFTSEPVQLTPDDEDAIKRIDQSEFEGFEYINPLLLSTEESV

[2] = molecular target: Mitogen-activated protein kinase kinase kinase 11 (Homo sapiens) (UniProt Q16584); assay: Inhibition of MLK3 (unknown origin) at 1 uM incubated for 30 mins in presence of [gamma-33P]ATP by multidrop micro reagent based assay relative to control; values are per cent of control
[3] = molecular target: Tyrosine-protein kinase Yes (Homo sapiens) (UniProt P07947); assay: Inhibition of YES1 (unknown origin) at 1 uM incubated for 30 mins in presence of [gamma-33P]ATP by multidrop micro reagent based assay relative to control; values are per cent of control
[4] = molecular target: T2, Mitogen-activated protein kinase kinase kinase kinase 2 (Homo sapiens) (UniProt Q12851); assay: Inhibition of GCK (unknown origin) at 1 uM incubated for 30 mins in presence of [gamma-33P]ATP by multidrop micro reagent based assay relative to control
T2 sequence (whole entry): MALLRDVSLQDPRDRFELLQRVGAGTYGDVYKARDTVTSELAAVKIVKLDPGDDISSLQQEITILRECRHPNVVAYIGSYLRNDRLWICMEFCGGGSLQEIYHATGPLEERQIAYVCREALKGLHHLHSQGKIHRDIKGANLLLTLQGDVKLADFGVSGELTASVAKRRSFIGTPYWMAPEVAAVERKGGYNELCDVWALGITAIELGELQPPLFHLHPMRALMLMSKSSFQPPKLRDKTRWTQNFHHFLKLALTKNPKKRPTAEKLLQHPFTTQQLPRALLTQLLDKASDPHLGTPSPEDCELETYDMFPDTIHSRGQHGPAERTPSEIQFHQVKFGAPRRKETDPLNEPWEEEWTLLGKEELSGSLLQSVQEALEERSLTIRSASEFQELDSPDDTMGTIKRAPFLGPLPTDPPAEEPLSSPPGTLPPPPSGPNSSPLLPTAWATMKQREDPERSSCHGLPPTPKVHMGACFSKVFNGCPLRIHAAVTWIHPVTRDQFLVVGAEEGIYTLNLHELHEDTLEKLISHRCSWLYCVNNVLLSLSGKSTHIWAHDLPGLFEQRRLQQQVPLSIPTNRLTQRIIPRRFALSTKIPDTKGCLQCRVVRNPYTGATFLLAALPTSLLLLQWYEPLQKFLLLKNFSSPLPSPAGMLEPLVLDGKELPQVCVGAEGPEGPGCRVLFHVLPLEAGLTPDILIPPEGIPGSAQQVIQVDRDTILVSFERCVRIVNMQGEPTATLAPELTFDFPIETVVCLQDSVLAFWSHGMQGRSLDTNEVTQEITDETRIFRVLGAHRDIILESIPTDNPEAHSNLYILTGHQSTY

[5] = molecular target: Ribosomal protein S6 kinase alpha-5 (Homo sapiens) (UniProt O75582); assay: Inhibition of MSK1 (unknown origin) at 1 uM incubated for 30 mins in presence of [gamma-33P]ATP by multidrop micro reagent based assay relative to control; values are per cent of control
[6] = molecular target: Rho-associated protein kinase 2 (Homo sapiens, UniProt O75116); assay: Inhibition of ROCK2 (unknown origin) at 1 uM incubated for 30 mins in presence of [gamma-33P]ATP by multidrop micro reagent based assay relative to control; values are per cent of control
[7] = molecular target: Ribosomal protein S6 kinase beta-1 (Homo sapiens) (UniProt P23443); assay: Inhibition of S6K1 (unknown origin) at 1 uM incubated for 30 mins in presence of [gamma-33P]ATP by multidrop micro reagent based assay relative to control; values are per cent of control
[8] = molecular target: Protein kinase C alpha type (Homo sapiens) (UniProt P17252); assay: Inhibition of PKCalpha (unknown origin) at 1 uM incubated for 30 mins in presence of [gamma-33P]ATP by multidrop micro reagent based assay relative to control; values are per cent of control
[9] = molecular target: AMP-activated protein kinase, AMPK (Homo sapiens) (UniProt P54646+O43741+P54619+Q9UGJ0+Q9Y478+Q13131+Q9UGI9); assay: Inhibition of AMPK (unknown origin) at 1 uM incubated for 30 mins in presence of [gamma-33P]ATP by multidrop micro reagent based assay relative to control; values are per cent of control
[10] = molecular target: Serine/threonine-protein kinase Chk2 (Homo sapiens) (UniProt O96017); assay: Inhibition of CHK2 (unknown origin) at 1 uM incubated for 30 mins in presence of [gamma-33P]ATP by multidrop micro reagent based assay relative to control; values are per cent of control
Sequence of Serine/threonine-protein kinase Chk2 (Homo sapiens) (O96017 whole entry): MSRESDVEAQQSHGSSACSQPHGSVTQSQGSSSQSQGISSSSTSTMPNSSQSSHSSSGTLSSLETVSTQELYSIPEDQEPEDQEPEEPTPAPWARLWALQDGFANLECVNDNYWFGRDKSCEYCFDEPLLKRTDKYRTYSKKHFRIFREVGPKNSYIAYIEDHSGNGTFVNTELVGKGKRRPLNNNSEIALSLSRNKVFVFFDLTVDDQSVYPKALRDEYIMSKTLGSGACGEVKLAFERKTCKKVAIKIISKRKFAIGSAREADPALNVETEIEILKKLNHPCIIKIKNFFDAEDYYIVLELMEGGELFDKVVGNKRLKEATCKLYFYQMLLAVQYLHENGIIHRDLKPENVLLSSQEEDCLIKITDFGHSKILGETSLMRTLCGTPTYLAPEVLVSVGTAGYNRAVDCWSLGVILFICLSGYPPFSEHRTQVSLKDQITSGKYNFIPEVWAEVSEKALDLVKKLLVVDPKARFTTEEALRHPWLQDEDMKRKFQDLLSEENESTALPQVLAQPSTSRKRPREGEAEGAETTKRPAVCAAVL

Sequence of Ribosomal protein S6 kinase alpha-5 (Homo sapiens) (O75582 whole entry, looked up): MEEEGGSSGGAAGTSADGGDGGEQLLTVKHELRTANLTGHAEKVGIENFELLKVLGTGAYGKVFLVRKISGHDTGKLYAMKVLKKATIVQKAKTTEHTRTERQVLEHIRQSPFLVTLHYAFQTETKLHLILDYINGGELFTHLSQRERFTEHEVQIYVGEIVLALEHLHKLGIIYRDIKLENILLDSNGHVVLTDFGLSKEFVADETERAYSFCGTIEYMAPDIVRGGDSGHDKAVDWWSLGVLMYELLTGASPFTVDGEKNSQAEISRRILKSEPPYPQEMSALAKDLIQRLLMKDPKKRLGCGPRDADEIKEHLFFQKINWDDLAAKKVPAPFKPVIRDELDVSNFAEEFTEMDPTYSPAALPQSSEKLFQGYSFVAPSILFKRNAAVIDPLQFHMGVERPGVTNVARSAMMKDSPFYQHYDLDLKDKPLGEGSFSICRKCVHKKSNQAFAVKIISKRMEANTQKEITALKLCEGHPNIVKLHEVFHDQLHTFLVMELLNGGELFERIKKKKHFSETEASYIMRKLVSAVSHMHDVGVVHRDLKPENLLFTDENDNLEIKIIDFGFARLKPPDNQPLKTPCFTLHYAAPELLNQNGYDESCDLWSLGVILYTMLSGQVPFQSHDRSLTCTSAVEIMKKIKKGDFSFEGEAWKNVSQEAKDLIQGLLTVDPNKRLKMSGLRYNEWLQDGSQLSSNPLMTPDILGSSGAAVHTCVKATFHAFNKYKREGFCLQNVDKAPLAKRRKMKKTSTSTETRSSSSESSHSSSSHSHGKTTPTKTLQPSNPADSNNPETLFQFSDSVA
Sequence of Rho-associated protein kinase 2 (O75116 whole entry, looked up): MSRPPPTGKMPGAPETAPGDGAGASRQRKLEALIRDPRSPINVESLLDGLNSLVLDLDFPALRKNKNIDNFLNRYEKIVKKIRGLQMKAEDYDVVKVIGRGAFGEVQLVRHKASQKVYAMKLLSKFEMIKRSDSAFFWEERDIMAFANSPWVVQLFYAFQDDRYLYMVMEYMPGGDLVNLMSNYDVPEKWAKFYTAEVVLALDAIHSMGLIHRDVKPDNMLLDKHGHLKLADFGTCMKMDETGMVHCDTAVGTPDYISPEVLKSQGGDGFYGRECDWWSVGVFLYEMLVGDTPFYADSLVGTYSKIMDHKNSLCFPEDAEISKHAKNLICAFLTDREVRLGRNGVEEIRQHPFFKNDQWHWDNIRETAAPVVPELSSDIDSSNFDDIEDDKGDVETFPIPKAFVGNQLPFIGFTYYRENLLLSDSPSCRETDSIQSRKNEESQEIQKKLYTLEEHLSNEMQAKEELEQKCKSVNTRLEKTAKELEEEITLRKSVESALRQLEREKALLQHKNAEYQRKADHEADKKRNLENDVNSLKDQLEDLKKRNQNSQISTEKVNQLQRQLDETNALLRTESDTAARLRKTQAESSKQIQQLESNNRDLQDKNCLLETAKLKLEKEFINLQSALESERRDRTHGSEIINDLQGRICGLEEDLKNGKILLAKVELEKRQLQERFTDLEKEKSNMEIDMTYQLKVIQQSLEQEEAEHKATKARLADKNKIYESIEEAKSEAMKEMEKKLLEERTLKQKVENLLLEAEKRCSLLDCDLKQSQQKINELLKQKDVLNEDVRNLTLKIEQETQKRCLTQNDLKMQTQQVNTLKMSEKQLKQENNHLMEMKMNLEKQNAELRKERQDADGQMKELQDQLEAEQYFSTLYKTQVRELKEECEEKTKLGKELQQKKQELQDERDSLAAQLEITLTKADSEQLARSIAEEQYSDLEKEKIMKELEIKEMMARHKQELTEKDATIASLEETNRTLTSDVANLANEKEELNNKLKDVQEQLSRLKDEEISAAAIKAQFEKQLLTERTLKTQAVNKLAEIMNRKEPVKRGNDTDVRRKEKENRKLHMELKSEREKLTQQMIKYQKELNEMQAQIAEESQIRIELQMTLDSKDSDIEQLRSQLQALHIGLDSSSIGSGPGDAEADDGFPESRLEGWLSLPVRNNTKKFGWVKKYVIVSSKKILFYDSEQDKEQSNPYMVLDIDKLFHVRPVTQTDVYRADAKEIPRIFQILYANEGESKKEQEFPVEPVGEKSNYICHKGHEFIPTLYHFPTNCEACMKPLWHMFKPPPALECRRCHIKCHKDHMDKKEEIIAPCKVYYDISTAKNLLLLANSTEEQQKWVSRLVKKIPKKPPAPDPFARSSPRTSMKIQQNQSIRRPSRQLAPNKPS
Sequence of Mitogen-activated protein kinase kinase kinase 11 (Homo sapiens) (Q16584 whole entry, looked up): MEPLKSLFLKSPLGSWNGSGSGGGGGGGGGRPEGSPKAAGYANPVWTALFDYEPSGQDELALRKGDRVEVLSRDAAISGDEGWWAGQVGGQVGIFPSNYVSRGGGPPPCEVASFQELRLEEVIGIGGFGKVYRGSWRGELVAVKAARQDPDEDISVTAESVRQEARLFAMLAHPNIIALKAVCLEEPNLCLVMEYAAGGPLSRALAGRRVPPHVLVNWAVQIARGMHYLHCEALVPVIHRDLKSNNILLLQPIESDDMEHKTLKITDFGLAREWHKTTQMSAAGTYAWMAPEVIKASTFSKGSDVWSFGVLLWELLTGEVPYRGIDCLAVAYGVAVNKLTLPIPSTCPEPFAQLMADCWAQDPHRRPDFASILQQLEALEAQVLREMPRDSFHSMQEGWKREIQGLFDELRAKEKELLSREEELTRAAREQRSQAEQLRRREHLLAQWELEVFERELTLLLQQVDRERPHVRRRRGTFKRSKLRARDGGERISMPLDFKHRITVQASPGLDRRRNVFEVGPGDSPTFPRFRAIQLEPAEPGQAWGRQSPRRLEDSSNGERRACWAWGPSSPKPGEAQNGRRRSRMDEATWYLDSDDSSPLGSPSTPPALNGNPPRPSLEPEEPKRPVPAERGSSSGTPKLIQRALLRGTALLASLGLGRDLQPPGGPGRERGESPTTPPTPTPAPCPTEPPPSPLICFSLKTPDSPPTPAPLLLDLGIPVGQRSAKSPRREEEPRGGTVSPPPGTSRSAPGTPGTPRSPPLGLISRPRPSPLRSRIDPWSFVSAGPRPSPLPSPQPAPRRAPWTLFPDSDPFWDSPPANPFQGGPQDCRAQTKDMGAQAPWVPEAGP
Sequence of Tyrosine-protein kinase Yes (Homo sapiens) (P07947 2-543 limits assumed): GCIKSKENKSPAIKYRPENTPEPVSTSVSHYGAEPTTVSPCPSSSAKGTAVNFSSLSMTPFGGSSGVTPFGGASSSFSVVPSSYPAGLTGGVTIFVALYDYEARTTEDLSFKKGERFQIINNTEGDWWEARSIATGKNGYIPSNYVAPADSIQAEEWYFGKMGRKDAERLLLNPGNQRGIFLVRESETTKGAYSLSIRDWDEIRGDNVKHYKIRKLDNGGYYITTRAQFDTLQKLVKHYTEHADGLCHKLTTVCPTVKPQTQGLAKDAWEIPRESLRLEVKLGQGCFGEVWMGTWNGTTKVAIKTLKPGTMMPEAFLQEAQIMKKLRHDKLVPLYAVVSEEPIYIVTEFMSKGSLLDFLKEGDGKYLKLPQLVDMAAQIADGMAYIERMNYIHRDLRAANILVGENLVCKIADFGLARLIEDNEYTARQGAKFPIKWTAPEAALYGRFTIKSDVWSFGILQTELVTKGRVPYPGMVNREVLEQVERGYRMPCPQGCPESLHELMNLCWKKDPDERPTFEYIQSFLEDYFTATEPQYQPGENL

## CCn1c(-c2nonc2N)nc2cnc(Oc3cccc(NC(=O)c4ccc(OCCN5CCOCC5)cc4)c3)cc21 [GSK-269962A]
[1]
  residual activity: 5%
[2]
  residual activity: 97%
[3]
  residual activity: 114%
[4]
  residual activity: 78%
[5]
  residual activity: 1%
[6]
  residual activity: 1%
[7]
  residual activity: 2%
[8]
  residual activity: 32%

## CCN(CC)CCNC(=O)c1c(C)[nH]c(/C=C2\C(=O)Nc3ccc(F)cc32)c1C
[9]
  residual activity: 15%
[10]
  residual activity: 5%
[5]
  residual activity: 60%
[6]
  residual activity: 67%

## Cc1cncc2cccc(S(=O)(=O)N3CCCNC[C@@H]3C)c12
[1]
  residual activity: 86%
[2]
  residual activity: 85%
[3]
  residual activity: 76%
[4]
  residual activity: 56%
[9]
  residual activity: 45%
[10]
  residual activity: 44%
[5]
  residual activity: 39%
[6]
  residual activity: 3%
[7]
  residual activity: 72%
[8]
  residual activity: 70%

## CC1=C(C(=O)Nc2cc3cn[nH]c3cc2F)C(c2ccc(C(F)(F)F)cc2)CC(=O)N1 (configuration not stated)
[1]
  residual activity: 81%
[2]
  residual activity: 116%
[3]
  residual activity: 58%
[4]
  residual activity: 97%
[9]
  residual activity: 78%
[10]
  residual activity: 102%
[5]
  residual activity: 20%
[6]
  residual activity: 3%
[7]
  residual activity: 24%
[8]
  residual activity: 82%
